Data reported in patent US20080063679A1, “NANOCOMPOSITES WITH RESIDUAL BIOCIDAL AND BIOSTATIC PROPERTIES” (Quartek Corporation, priority 2006, published 2008).
Values after ≈ are worked out from the molar mass of the structure shown.

Tests used:
[1] = Minimum inhibitory concentration (MIC), comparison of biocidal nanocomposites and existing decontaminants; format: cell-based; settings: Table 1
Description: (§1) Current antimicrobials have a short life with no residual effect. They lose there effectiveness in high protein environment. Certain bacteria developed resistance. They are toxic or cause irritations. Some are highly corrosive.

G+ & G− = assay: Bactericidal effectiveness, comparison table; format: cell-based; settings: Table 1
Description: as §1

spores = assay: Sporicidal effectiveness, comparison table; format: cell-based; settings: Table 1
Description: as §1

fungi = assay: Fungicidal effectiveness, comparison table; format: cell-based; settings: Table 1
Description: as §1

[2] = Description: as §1

**Q.** What does the source list for OCl [Hypochlorite]?
**A.** Minimum inhibitory concentration (MIC) [1]: 150 µg/mL (≈ 2860 µM); Effectiveness Bactericidal (G+ & G−) (G+ & G−): very good; Effectiveness Sporicidal (spores): no/fair; Effectiveness Fungicidal (fungi): good; Non-corrosive [2]: no; Contact time ([2]; Table 1): 1 to 30 min; Effective in hard water ([2]; Table 1): poor; Effective in organics ([2]; Table 1): poor; Effective in soap ([2]; Table 1): yes; Residual activity ([2]; Table 1): poor
